According to paper PMC6624297 (Cell Death & Disease, 2019):

How the values were obtained:
[1] = system: A549 cells; experiment: MTT assay A549; assay type: cell-based, human
Method: (§1) Details are given in Supplementary Materials and Methods. Using probability unit and weighted regression method to calculate the IC50 value of compounds.
(§2) Total cells in the logarithmic growth phase were collected, digested using 0.25% pancreatic enzymes, and then diluted into single-cell suspensions using phosphate-buffered solution (PBS). These cells were seeded into 96-well plates at 4× 10^3-5× 10^3 cells per well (100 µL per well) and then A549, H460, OVCAR-3, SGC7901, MDA-MB-231, HCT116 and HepG2 were cultured at 37°Cin an incubator containing 5% CO2. After cell complete attachment, 100 µL of different concentrations of compounds (0.625 μM, 1.25 μM, 2.5μM, 5 μM, 10 μM) were added to the cells after the nutrient solution in each well was discarded, while no compound except 0.1% DMSO was added to cells in the control group; at the same time, each concentration was set up to 5 wells. In addition, 5 wells in each 96-well plate only received 100 µL of nutrient solution as a blank control. The plates were taken out after the cells were incubated with compounds for 24 h, and 20 µL of MTT solution (5 mg/mL) (Wuhan Boster Biotechnology Limited Company, Wuhan, China; item No. AR1156) was added into all the wells. After another time of incubation for 4 h at 37 °C, the nutrient solution in each well was discarded slowly, and 150 µL of DMSO was added to each well. The plates were shaken on a shaking table for 20 min. When the crystals were fully dissolved, the blank wells were used to zero the plate reader. The optical density (OD) of each well was detected at 490 nm. The IC50 value was determined as the concentration of the inhibitor that caused 50% inhibition. Using probability unit and weighted regression method to calculate the IC50 value of compounds.

[2] = system: IOSE80 cell line; experiment: Selectivity index against IOSE80; assay type: cell-based; settings: SI = CC50/IC50
[3] = system: H460 cells; experiment: Annexin V/PI staining flow cytometry, H460; assay type: cell-based, human; settings: 24 h
Method: The density of the A549 cells and H460 in the logarithmic growth phase was adjusted to 1 × 10^6 cells/mL, and a total of 1 mL of cell suspension and 1 mL of L14e at different concentrations were added into each well with the final compound L14e concentration in each group as 0, 0.5, 1.0, and 1.5 μM. Details are given in Supplementary Materials and Methods.
The density of the A549 cells and H460 in the logarithmic growth phase was adjusted to 1 × 10^6 cells/mL, and then the cell suspension was seeded into a 6-well plate (Becton Dickinson and Company, USA). A total of 1 mL of cell suspension and 1 mL of compound L14e at different concentrations were added into each well with the final compound L14e concentration in each group as 0 μM, 0.5 μM, 1.0 μM, and 1.5μM. After cells were incubated for 24 h at 37 °C, 1 mL of cell suspension per well was collected and centrifuged at 1000 r/min for 10 min at 4°C, and the supernatant was removed. Then, 1 mL of cold PBS was added to the cell pellet, and was shaken lightly to re-suspend the cells. The cells were centrifuged at 1000 r/min at 4 °C for 10 min, and the supernatant was removed. These steps were repeated twice. The cells were re-suspended in 150µL of PBS, 10 µL of fluorescein isothiocyanate (FITC)-labeled Annexin V (Annexin V-FITC) (Promega Corporation, USA) and 5 µL of PI (Promega Corporation, USA) were added. The mixture was gently mixed and incubated in the dark at room temperature for 10 min then stained cells were analyzed using flow cytometry to test the levels of apoptotic cells (Becton Dickinson and Company, USA; FACS Calibur).

[4] = system: HTB-125 cell line; experiment: Selectivity index against HTB-125; assay type: cell-based; settings: SI = CC50/IC50
[5] = system: LO2 cell line; experiment: Selectivity index against LO2; assay type: cell-based; settings: SI = CC50/IC50
[6] = system: p-EGFR, p-AKT, p-ERK1/2; experiment: Western blot EGFR signaling pathway, H460; assay type: cell-based, human; settings: H460, 0.5, 1.0, 1.5 μM, 24 h, EGF 50 ng/ml
Method: A549 cells, H460 cells and HUVECs were treated with different concentrations of compound L14e for 24 h. Primary antibodies (100 μL/cm^2): P53(10442-1-AP, Proteintech Group),caspase-3 (19677-1-AP, Proteintech Group), bax (50599-2-lg, Proteintech Group), bcl-2 (12789-1-AP, Proteintech Group), cleaved caspase-3 (25546-1-AP, Proteintech Group), β-actin (60008-1-lg, Proteintech Group), EGFR (ab21074, Abcam), AKT (#2920, Cell Signaling Technology), ERK1/2 (#4370, Cell Signaling Technology), VEGFR-2 (#9698, Cell Signaling Technology), p-EGFR (ab40815, Abcam), p-AKT (#4060, Cell Signaling Technology), p-ERK1/2 (#4695, Cell Signaling Technology), p-VEGFR-2 (#3770, Cell Signaling Technology), and GAPDH (ab181603, Abcam). The cellular levels of proteins were determined by standard Western blotting. Details were given in Supplementary Materials and Methods.
A549 cells, H460 cells and HUVECs were treated with different concentrations of compound L14e for 24 h, and collected to establish their respective treatment groups. […]
Extracted proteins were separated from each other using polyacrylamide electrophoresis on a 10 % gel (Beyotime Biotechnology Company, Shanghai, China) and transferred to a polyvinylidene fluoride (PVDF) membrane. […] Gray values of protein bands were quantitatively analyzed, with the gray value of β-actin(GAPDH) band as the reference.

[7] = system: HepG2 cells; experiment: MTT assay HepG2; assay type: cell-based; settings: Homo sapiens, 24h of treatment, mean ± SD
Method: as §1, §2

SMILES: O=C(Nc1cccc(Cl)c1)Nc1ccccc1NS(=O)(=O)c1c[nH]c(=O)[nH]c1=O [Compound L14e, N'-(3-chlorophenyl)-2-(2,4-dihydroxypyrimidine-5-sulfonamido)phenyl urea]
- anti-proliferative potency relative to PTX, A549 [1]: nearly five times higher
- IC50 ([1]; Homo sapiens, A549, 24h of treatment, mean ± SD): 670 ± 220 nM
- SI (Selectivity index) IOSE80 [2]: 8.79
- apoptotic rate ([3]; H460, 0.5 μM): 6.4%
- early apoptosis rate (Q4, Annexin V [+] PI [−]) ([3]; H460, 0.5 μM): 3.9%
- apoptotic rate ([3]; H460, 1.0 μM): 21.8%
- early apoptosis rate (Q4, Annexin V [+] PI [−]) ([3]; H460, 1.0 μM): 15.1%
- apoptotic rate ([3]; H460, 1.5 μM): 24.4%
- early apoptosis rate (Q4, Annexin V [+] PI [−]) ([3]; H460, 1.5 μM): 17.3%
- SI (Selectivity index) HTB-125 [4]: 10.39
- SI (Selectivity index) LO2 [5]: 12.58
- expression of phosphorylated EGFR (Tyr1068) and AKT (Ser473) [6]: significantly reduced
- IC50 [7]: 1360 ± 130 nM
